Data as given in PubChem BioAssay (NCI).
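Exposure lasted 48 hours, with cells grown in 96-well plates and compounds tested at five concentrations. TGI is the concentration that stops growth completely.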

Columns and labels:
Assay in all cases: inhibition of tumour cell growth, NCI panel, 48 h
EKVX NSCLC = test system: EKVX NSCLC
MCF7 breast = test system: MCF7 breast
MOLT-4 leukemia = test system: MOLT-4 leukemia
SNB-75 CNS = test system: SNB-75 CNS
SW-620 colon = test system: SW-620 colon
HCC-2998 colon = test system: HCC-2998 colon
NCI-H460 lung = test system: NCI-H460 lung

SMILES	TGI (EKVX NSCLC) [µM]	TGI (MCF7 breast) [µM]	TGI (MOLT-4 leukemia) [µM]	TGI (SNB-75 CNS) [µM]	TGI (SW-620 colon) [µM]	TGI (HCC-2998 colon) [µM]	TGI (NCI-H460 lung) [µM]
C/C1=C\[C@H](C)C[C@H](C)OC(=O)C[C@H](c2ccc(O)cc2)NC(=O)[C@H](Cc2ccc(O)c(Br)c2)N(C)C(=O)[C@H](C)NC(=O)[C@@H](C)C1	> 25	> 25	> 25	> 25	> 25	–	–
CC(C)[Si](OC1=C(C(=O)N(C)c2ccccc2Cl)CCCC1)(C(C)C)C(C)C	28	27.2	43	27.5	33.3	28.1	28.6
c1ccc(N=c2sc3ccccc3sc2=Nc2ccccc2)cc1	7.26	–	> 100	11.5	3.27	3.24	3.79
O=C(Nc1sccc1S(=O)(=O)c1ccc(Cl)cc1)C(F)(F)F	> 100	> 100	41.1	71.6	> 100	> 100	> 100
O=C(Nc1nnc(-c2c(Cl)c(Cl)c(Cl)c(Cl)c2-c2nc3cc(C(=O)c4ccccc4)ccc3[nH]2)o1)c1ccccc1	38.7	36.5	72.5	41.4	> 100	–	–
CC(C)=C[C@@H]1C[C@H](C)c2c(O)cc(C)c3c2C1=C(C)C(=O)C3=O	33	65.8	> 100	31.4	32.4	54.3	48.8
COc1ccc2oc(=O)c(CC=C(C)C)c(O)c2c1C	> 100	> 100	> 100	> 100	> 100	> 100	> 100
CN1CCCC1=NC#N	> 100	> 100	> 100	> 100	> 100	> 100	> 100
Cc1cc(S(=O)(=O)NC2=NC(c3ccccc3)c3ccccc3N2)c(S)cc1Cl (configuration not stated)	> 100	> 100	> 100	> 100	> 100	> 100	> 100
COc1cc2nc(-c3ccccc3F)[nH]c(=O)c2cc1OC	> 100	> 100	> 100	> 100	–	> 100	> 100
COc1ccc(OC)c(-c2nc3ccccc3c(=O)[nH]2)c1	> 100	> 100	> 100	> 100	> 100	> 100	> 100
O=C(O)c1nc2ccccc2nc1Nc1ccc(F)cc1	> 100	74.8	> 100	81.8	> 100	> 100	> 100
O=C1/C(=C/c2ccccc2)N=C(c2ccccc2)N1C1Nc2cc3c(cc2S1)NC(N1C(=O)/C(=C/c2ccccc2)N=C1c1ccccc1)S3 (configuration not stated)	> 100	> 100	88.2	–	78.5	4.76	> 100
COC(=O)n1c(=O)n(-c2ccccc2)c(=O)n1C(=O)Nc1ccccc1	> 100	–	> 100	> 100	> 100	> 100	> 100
CC(=O)c1nc2ccccc2n1CC(=O)c1ccc(Cl)cc1	> 100	> 100	> 100	–	44	–	22.5
CCOC(=O)CCC(C(=O)OCC)n1nnc2ccc(Nc3c(C)[n+]([O-])c4cc(Cl)ccc4[n+]3[O-])cc21 (configuration not stated)	> 100	34.3	> 100	> 100	–	49.7	> 100
Cc1c2cccc-2ccc2c1[nH]c1ccc(Br)cc12	6.11	19.8	–	7.89	25.2	49.3	> 100
CN(C)/C=C(\C(=O)c1ccccc1)n1nc(-c2ccccc2)cc1-c1ccccc1	> 10	> 10	> 10	–	> 10	> 10	> 10
COc1ccc(OC)c(C#Cc2ccc(OC)c(C(=O)NCCc3ccc(F)cc3)c2)c1	> 100	> 100	> 100	–	> 100	7.73	> 100
COc1ccc(C2CC(c3ccc4ccccc4c3O)=NN2C(C)=O)cc1OC (configuration not stated)	–	> 100	> 100	> 100	> 100	> 100	> 100
Cc1nc(-c2cc3c(ccc4ccccc43)oc2=O)cc2c1c(=O)oc1ccc3ccccc3c12	> 100	> 100	> 100	–	> 100	> 100	> 100
Cc1cc(S(=O)(=O)n2ccnc2Oc2ccccc2)c(SSc2cc(Cl)c(C)cc2S(=O)(=O)n2ccnc2Oc2ccccc2)cc1Cl	> 100	> 100	–	> 100	> 100	> 100	> 100
CC1(c2nc3ccccc3[nH]2)CCC(C(N)=O)C(C)(C)O1 (configuration not stated)	> 100	> 100	> 100	> 100	> 100	> 100	–
CN(C)CCCNc1ccnc2cc([N+](=O)[O-])ccc12	–	16.7	> 100	48.9	30	–	17.7
Nc1nc(Cl)cc(NCC2(CO)CCC(O)C2)n1 (configuration not stated)	> 100	> 100	> 100	> 100	> 100	–	> 100
Cc1cc(C)n(-c2nc3ccccc3c(=O)n2-c2ccccc2)n1	–	> 100	> 100	> 100	> 100	> 100	> 100
O=C1c2cscc2C(=O)C1(O)O	> 100	> 100	57.8	–	42.1	–	> 100
CCCN(CCC)c1cc2c(cc1F)c(=O)c(C(=O)O)cn2-c1ccc(N2CCN(C)CC2)cn1	34.2	53.3	43.4	28.3	48.2	–	36.5
CC1=C(C#N)C2C(=C(N)Oc3ccccc32)C(N)=N1 (configuration not stated)	73.8	62.9	> 100	64.1	> 100	69.8	–
